Columns and labels:
Test in all cases: normalised response (% of control), CellTiter-Glo; higher = more viable cells (100 = DMSO, 0 = benzethonium chloride kill control)
Details in all cases: incubation time: 72 h
HCC1937 = test system: HCC1937
Outline: (§1)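 Breast cancer cell lines in 20 µl suspension were added to 384-well plates containing compound at 5 concentrations, spaced in 10-fold steps across a 10,000-fold range chosen for each compound, and incubated for 72 h. CellTox Green fluorescence was read at 485/520 nm, followed by CellTiter-Glo luminescence after 10 min at room temperature. Signals on each plate were normalised so that 0.1 % DMSO equals 100 and a positive kill control equals 0. Every value in the table is the normalised signal at one concentration of the series.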

CAL-51 = test system: CAL-51
Outline: as §1

Hs578T = test system: Hs578T
Outline: as §1

HCC1143 = test system: HCC1143
Outline: as §1

CAL-148 = test system: CAL-148
Outline: as §1

MDA-MB-231 = test system: MDA-MB-231
Outline: as §1

HCC1599 = test system: HCC1599
Outline: as §1

MDA-MB-436 = test system: MDA-MB-436
Outline: as §1

MCF-10A = test system: MCF-10A
Outline: as §1

BT-549 = test system: BT-549
Outline: as §1

HDQ-P1 = test system: HDQ-P1
Outline: as §1

BT-474 = test system: BT-474
Outline: as §1

MDA-MB-468 = test system: MDA-MB-468
Outline: as §1

MDA-MB-453 = test system: MDA-MB-453
Outline: as §1

CAL-85-1 = test system: CAL-85-1
Outline: as §1

DU-4475 = test system: DU-4475
Outline: as §1

MFM-223 = test system: MFM-223
Outline: as §1

CAL-120 = test system: CAL-120
Outline: as §1

SK-BR-3 = test system: SK-BR-3
Outline: as §1

Row | Structure (SMILES) | normalised response (HCC1937) [%] | normalised response (CAL-51) [%] | normalised response (Hs578T) [%] | normalised response (HCC1143) [%] | normalised response (CAL-148) [%] | normalised response (MDA-MB-231) [%] | normalised response (HCC1599) [%] | normalised response (MDA-MB-436) [%] | normalised response (MCF-10A) [%] | normalised response (BT-549) [%] | normalised response (HDQ-P1) [%] | normalised response (BT-474) [%] | normalised response (MDA-MB-468) [%] | normalised response (MDA-MB-453) [%] | normalised response (CAL-85-1) [%] | normalised response (DU-4475) [%] | normalised response (MFM-223) [%] | normalised response (CAL-120) [%] | normalised response (SK-BR-3) [%]
1 | CNC(=O)c1ccccc1Sc1ccc2c(/C=C/c3ccccn3)n[nH]c2c1 [Axitinib] (10 nM) | 100 | 121 | 97.7 | 102 | 101 | 107 | 111 | 103 | 103 | 107 | 103 | 107 | 96.8 | 107 | 102 | 102 | 105 | 96.7 | 106
2 | CN(Cc1cnc2nc(N)nc(N)c2n1)c1ccc(C(=O)N[C@@H](CCC(=O)O)C(=O)O)cc1 [Methotrexate] (50 nM) | 33 | 63.7 | 47.6 | 84.5 | 109 | 100 | 51.9 | 86.1 | 111 | 100 | 35.5 | 101 | 92.8 | 114 | 76.7 | 88.4 | 108 | 32.5 | 74.7
3 | CC1(C)CCC(c2ccc(Cl)cc2)=C(CN2CCN(c3ccc(C(=O)NS(=O)(=O)c4ccc(N[C@H](CCN5CCOCC5)CSc5ccccc5)c(S(=O)(=O)C(F)(F)F)c4)cc3)CC2)C1 [Navitoclax] (10 nM) | 101 | 115 | 99.7 | 95.9 | 90 | 98.1 | 103 | 98 | 98.6 | 99.5 | 87.5 | 94.5 | 87.6 | 100 | 97 | 99.4 | 96.7 | 91.7 | 77.3
4 | CN(C)C(=N)NC(=N)N [Metformin] (10 nM) | 90.6 | 86.8 | 93.2 | 98 | 97.7 | 96.5 | 93.1 | 91.7 | 77 | 98.3 | 97.7 | 92.3 | 89.4 | 80.5 | 99.6 | 87.8 | 88.1 | 103 | 76.9
5 | CC[C@H](CO)Nc1nc(NCc2ccccc2)c2ncn(C(C)C)c2n1 [Seliciclib] (1 nM) | 97.3 | 88.7 | 100 | 101 | 106 | 107 | 92.9 | 104 | 97.1 | 97.2 | 102 | 100 | 98 | 104 | 100 | 106 | 104 | 96.7 | 107
6 | CO[C@@H]1[C@H](N(C)C(=O)c2ccccc2)C[C@H]2O[C@]1(C)n1c3ccccc3c3c4c(c5c6ccccc6n2c5c31)C(=O)NC4 [Midostaurin] (10 nM) | 95.3 | 97.2 | 99.4 | 98.9 | 105 | 102 | 123 | 104 | 96.3 | 107 | 97.5 | 98.6 | 106 | 96.7 | 100 | 97.5 | 96.7 | 96 | 96.1
7 | Cc1cn(-c2cc(NC(=O)c3ccc(C)c(Nc4nccc(-c5cccnc5)n4)c3)cc(C(F)(F)F)c2)cn1 [Nilotinib] (10 nM) | 96.5 | 85.8 | 94 | 96.5 | 92.7 | 91.2 | 104 | 94.1 | 104 | 103 | 93.5 | 100 | 98.8 | 103 | 100 | 106 | 97.3 | 88.6 | 105
8 | O=[N+]([O-])c1ccc2c(c1)S(=O)(=O)C=C2 [Stattic] (5 nM) | 94.6 | 102 | 104 | 101 | 103 | 96.2 | 114 | 99.5 | 111 | 105 | 98.8 | 98.6 | 99.8 | 106 | 95.5 | 106 | 101 | 95.3 | 99.3
9 | CC(C)(C)NC(=O)[C@H]1CC[C@H]2[C@@H]3CC[C@H]4NC(=O)C=C[C@]4(C)[C@H]3CC[C@]12C [Finasteride] (10 nM) | 103 | 80.6 | 101 | 108 | 101 | 104 | 114 | 95.9 | 104 | 96.4 | 97.3 | 98.3 | 106 | 113 | 98.7 | 102 | 97.8 | 99.5 | 121
10 | CN[C@@H](C)C(=O)N[C@H]1CN(C(=O)CC(C)C)CC[C@H]2CC[C@@H](C(=O)NC(c3ccccc3)c3ccccc3)N2C1=O [AT-406] (10 nM) | 104 | 126 | 99.5 | 95.5 | 109 | 95.5 | 99.7 | 97.5 | 105 | 66.1 | 102 | 94.3 | 103 | 89.3 | 97.8 | 99.9 | 105 | 96.7 | 110
11 | C=CCn1c(=O)c2cnc(Nc3ccc(N4CCN(C)CC4)cc3)nc2n1-c1cccc(C(C)(C)O)n1 [MK1775] (10 nM) | 94.5 | 121 | 101 | 92.4 | 79.3 | 90.5 | 107 | 88.6 | 83 | 98.9 | 94.4 | 87.5 | 90.4 | 81 | 93.2 | 93.2 | 88.8 | 93.1 | 76.1
12 | Cc1nc(C(=O)NCC(=O)O)c(O)c2ccc(Oc3ccccc3)cc12 [FG-4592] (1 nM) | 102 | 89.8 | 103 | 108 | 102 | 101 | 100 | 96.2 | 111 | 104 | 106 | 94.7 | 98.4 | 109 | 98.9 | 103 | 102 | 98.5 | 111
13 | COc1cc(Nc2c(C#N)cnc3cc(OCCCN4CCN(C)CC4)c(OC)cc23)c(Cl)cc1Cl [Bosutinib] (10 nM) | 95.5 | 92.3 | 104 | 100 | 105 | 96.1 | 91.1 | 97.6 | 96.9 | 98.4 | 97.3 | 100 | 107 | 104 | 94.6 | 97.7 | 106 | 100 | 102
14 | CN[C@@H](C)C(=O)N[C@H]1CN(C(=O)CC(C)C)CC[C@H]2CC[C@@H](C(=O)NC(c3ccccc3)c3ccccc3)N2C1=O [AT-406] (1 nM) | 101 | 125 | 95.1 | 109 | 98.3 | 98.3 | 104 | 108 | 108 | 106 | 99.9 | 101 | 98.3 | 103 | 96.8 | 98.2 | 101 | 98.4 | 105
15 | CC(C)(C)c1nc(-c2cccc(NS(=O)(=O)c3c(F)cccc3F)c2F)c(-c2ccnc(N)n2)s1 [Dabrafenib] (0.25 nM) | 106 | 109 | 101 | 108 | 116 | 104 | 98.8 | 101 | 109 | 109 | 104 | 98.9 | 99.7 | 104 | 103 | 101 | 104 | 98.9 | 108
16 | CC(C)n1cnc2c(NCCc3ccc(O)cc3)nc(-c3csc4ccccc34)nc21 [StemRegenin 1] (1 nM) | 98.6 | 81.3 | 104 | 98.1 | 98.7 | 99.7 | 99.6 | 105 | 106 | 96.7 | 103 | 102 | 92.6 | 115 | 99.2 | 102 | 103 | 96.6 | 108
17 | CC(O)(CS(=O)(=O)c1ccc(F)cc1)C(=O)Nc1ccc(C#N)c(C(F)(F)F)c1 (stereo unspecified) [Bicalutamide] (10 nM) | 98.6 | 105 | 99 | 105 | 113 | 105 | 106 | 111 | 109 | 99.5 | 105 | 107 | 102 | 100 | 106 | 104 | 111 | 100 | 130
18 | CC(C)C[C@H](NC(=O)[C@@H](COC(C)(C)C)NC(=O)[C@H](Cc1ccc(O)cc1)NC(=O)[C@H](CO)NC(=O)[C@H](Cc1c[nH]c2ccccc12)NC(=O)[C@H](Cc1cnc[nH]1)NC(=O)[C@@H]1CCC(=O)N1)C(=O)N[C@@H](CCCNC(=N)N)C(=O)N1CCC[C@H]1C(=O)NNC(N)=O [Goserelin] (10 nM) | 93.7 | 92.5 | 99.5 | 99.2 | 94.6 | 94 | 98.5 | 98 | 102 | 99.4 | 101 | 98 | 96.1 | 102 | 93.8 | 100 | 94.2 | 101 | 119
19 | CCN(CC)CCCC(C)Nc1ccnc2cc(Cl)ccc12 (stereo unspecified) [Chloroquine] (10 nM) | 95.3 | 126 | 104 | 104 | 89.2 | 101 | 90.9 | 113 | 101 | 107 | 99 | 96.5 | 95.2 | 103 | 99.8 | 92.2 | 96.7 | 103 | 92.5
